We go through 20 compounds from ChEMBL document CHEMBL1136248, “Further SAR studies on novel small molecule inhibitors of the hepatitis C (HCV) NS5B polymerase” (Bioorg Med Chem Lett, 2003).

The target of the test is Genome polyprotein (Hepatitis C virus genotype 1a (isolate 1) (HCV), UniProt P26664). Description: Inhibition of Hepatitis C RNA dependent RNA polymerase Nonstructural protein 5B activity.
Genome polyprotein, sequence (P26664 2421-3011 limits assumed): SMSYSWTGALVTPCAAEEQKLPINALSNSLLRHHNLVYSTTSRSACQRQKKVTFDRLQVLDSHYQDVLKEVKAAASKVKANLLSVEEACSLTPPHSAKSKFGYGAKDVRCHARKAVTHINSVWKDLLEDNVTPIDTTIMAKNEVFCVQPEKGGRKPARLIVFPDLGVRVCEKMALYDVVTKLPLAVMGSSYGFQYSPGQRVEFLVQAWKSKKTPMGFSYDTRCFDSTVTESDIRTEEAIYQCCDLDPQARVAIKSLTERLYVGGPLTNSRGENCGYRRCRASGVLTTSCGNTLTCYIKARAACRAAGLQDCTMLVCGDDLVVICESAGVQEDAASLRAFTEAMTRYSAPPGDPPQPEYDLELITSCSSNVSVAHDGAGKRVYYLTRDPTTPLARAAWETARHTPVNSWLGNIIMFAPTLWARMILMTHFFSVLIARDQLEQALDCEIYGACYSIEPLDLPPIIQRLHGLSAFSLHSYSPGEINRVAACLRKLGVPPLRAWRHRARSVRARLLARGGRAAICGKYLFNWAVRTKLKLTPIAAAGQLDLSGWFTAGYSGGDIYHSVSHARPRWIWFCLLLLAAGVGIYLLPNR
A word on the IC50: it is the concentration that inhibits the measured activity by half. A low value points to inhibition by little substance. As to `O=C(O)[C@H](Cc1ccccc1)N(Cc1cccc(Br)c1)Cc1ccc(Cl)cc1Cl`, half-maximal inhibition (IC50) was put at 26 µM.
Turning to `O=C(O)[C@H](Cc1ccccc1)N(Cc1cccc(Br)c1)C(=O)Nc1ccc(Cl)cc1Cl`, the IC50 turned out to be 31 µM.
`Cc1cc(Cl)ccc1C(=O)N(Cc1cccc(Br)c1)[C@@H](Cc1ccccc1)C(=O)O` yielded an IC50 of 3.7 µM.
As for `O=C(O)[C@H](Cc1ccccc1)N(Cc1cccc(Br)c1)C(=O)c1cccc(Cl)c1`, the IC50 turned out to be 30 µM.
`O=C(O)[C@H](Cc1ccccc1)N(Cc1cccc(Br)c1)S(=O)(=O)c1ccc(Cl)cc1Cl` displayed an IC50 of 31 µM.
Compound `O=C(O)[C@H](Cc1ccccc1)N(Cc1cccc(Br)c1)c1ccc(Cl)cc1Cl` gave an IC50 of 15 µM.
`O=C(O)[C@H](Cc1ccccc1)N(Cc1cccc(Br)c1)C(=O)c1ccc(Cl)nc1Cl` displayed an IC50 of 31 µM.
With `O=C(O)[C@H](Cc1ccccc1)N(Cc1cccc(Br)c1)C(=O)c1ccc(Cl)cc1I` the figure was 2.7 µM.
Consider `COc1ccc(C(=O)N(Cc2cccc(Br)c2)[C@@H](Cc2ccccc2)C(=O)O)c(OC)c1`, for which the IC50 was 10.7 µM.
With `O=C(O)[C@H](Cc1ccccc1)N(Cc1cccc(Br)c1)C(=O)c1c(Cl)cc(Cl)cc1Cl` the figure was 13 µM; with `O=C(O)[C@H](Cc1ccccc1)N(Cc1cccc(Br)c1)C(=O)c1ccc(Cl)cc1Br`, 5 µM; with `O=C(O)[C@H](Cc1ccccc1)N(Cc1cccc(Br)c1)C(=O)c1ccc(Cl)cc1Cl`, 3.5 µM.
`O=C(O)[C@H](Cc1ccccc1)N(Cc1cccc(Br)c1)C(=O)c1ccc(Cl)cc1` yielded an IC50 of 10.6 µM.
In turn, `O=C(O)[C@H](Cc1ccccc1)N(Cc1cccc(Br)c1)C(=O)c1ccccc1Cl` came in with an IC50 of 31 µM.
On to `O=C(O)[C@H](Cc1ccccc1)N(Cc1cccc(Br)c1)C(=O)c1ccccc1`, for which the IC50 is > 50 µM.
Compound `O=C(O)[C@H](Cc1ccccc1)N(Cc1cccc(Br)c1)C(=O)c1ccc(F)cc1F` gave an IC50 of 43 µM.
In turn, `Cc1ccc(C(=O)N(Cc2cccc(Br)c2)[C@@H](Cc2ccccc2)C(=O)O)c(C)c1` showed an IC50 of 5.9 µM.
The compound `CCc1cc(Cl)ccc1C(=O)N(Cc1cccc(Br)c1)[C@@H](Cc1ccccc1)C(=O)O` registered an IC50 of 5.6 µM.
`O=C(O)[C@H](Cc1ccccc1)N(Cc1cccc(Br)c1)C(=O)c1ccc(Cl)c(Cl)c1` had an IC50 of 30 µM.
`COc1cc(Cl)ccc1C(=O)N(Cc1cccc(Br)c1)[C@@H](Cc1ccccc1)C(=O)O` came in with an IC50 of 11 µM.
